Where “and” joins values, the source holds several entries; their conditions need not be identical. Identical values can stand only once.
Legend:
human sdLDL = assay: Copper-induced sdLDL oxidation, TBARS (Example 7); assay type: biochemical
Description: An experiment to study the antioxidant effect of EPA in LDL and small dense LDL (“sdLDL”) was performed. LDL and sdLDL were isolated from the plasma of healthy volunteers by iodixanol density gradient ultracentrifugation, and adjusted to a final apolipoprotein concentration of 2 mg/mL. […] Lipid oxidation was initiated with 10 μM CuSO4 and monitored by the colorimetric detection of thiobarbituric acid reactive substances (TBARS) for 1 hr. Vitamin E was also incubated with sample aliquots as a positive control.

[1] = Glucose- and peroxidation-induced cholesterol domain formation, small angle x-ray diffraction (Example 4); conditions: 1:30 drug-to-phospholipid, glucose 200 mg/dL
Description: Samples were shell-dried under nitrogen gas and placed under vacuum for 1 h to remove residual solvent. […] Lipid suspensions were then vortexed for 3 min at ambient temperature to form MLVs. […] Membrane lipid vesicles were oriented for x-ray diffraction analysis as described by others (e.g., Herbette et al., Biophys. […] Briefly, a 100 μL aliquot (containing 250 μg MLV) was aspirated from each sample and transferred to a Lucite® sedimentation cell fitted with an aluminum foil substrate upon which a given sample could be collected by centrifugation. Samples were then loaded into a Sorvall AH-629 swinging bucket rotor (DuPont Corp., Wilmington, Del.) and centrifuged at 35,000 g, 5° C., for 90 min. After centrifugal orientation, sample supernatants were aspirated and aluminum foil substrates, each supporting a single membrane pellet, were removed from the sedimentation cells. […] The d-space for any given membrane multibilayer is a measurement of the unit cell periodicity of the membrane lipid bilayer (e.g., the distance from the center of one lipid bilayer to the next including surface hydration), and is calculated from Bragg's Law, […], where h is the diffraction order, λ is the wavelength of the x-ray radiation (1.54 Å), d is the membrane lipid bilayer unit cell periodicity, and θ is the Bragg angle equal to one-half the angle between the incident beam and scattered beam. […]

human LDL = assay: Copper-induced oxidation of unfractionated LDL, TBARS (Example 7); assay type: biochemical; conditions: 1 hour
Description: An experiment to study the antioxidant effect of EPA in LDL and small dense LDL (“sdLDL”) was performed. LDL and sdLDL were isolated from the plasma of healthy volunteers by iodixanol density gradient ultracentrifugation, and adjusted to a final apolipoprotein concentration of 2 mg/mL. […] Vitamin E was also incubated with sample aliquots as a positive control.

HUVECs [2] = assay: NO and ONOO^− release from HUVECs exposed to oxLDL, nanosensors (Example 8); assay type: cell-based, human; conditions: ECs exposed to oxLDL; compared to vehicle
Description: Human umbilical vein endothelial cells (HUVECs) were isolated into primary cultures from female donors by Clonetics (San Diego, Calif.) and purchased as proliferating cells. All cell culture donors were healthy, with no pregnancy or prenatal complications. […] The confluent cells (4 to 5×10^5 cells/35 mm dish) were placed with minimum essential medium containing 3 mM L-arginine and 0.1 mM BH4 [(6R)-5,6,7,8-tetrahydrobiopterin]. Before experimental use, the cells (from second or third passage) were rinsed twice with Tyrode-HEPES buffer with 1.8 mM CaCl2.
Plasma was immediately separated by centrifugation at 3,000 g for 10 minutes at 4° C.
Tris-NaCl buffer was added to the dialyzed LDL to adjust the protein concentration to 30 mg/mL. A 1-mL aliquot of 20 μM CuSO4 was added to 1 mL of dialyzed normal LDL.
Concurrent measurements of NO and ONOO^− were performed with tandem electrochemical nanosensors combined into one working unit with a total diameter of 200-400 nm. Their design was based on previously developed and chemically modified carbon-fiber technology. […]
The amperometric method (with a response time of 0.1 ms) provides a quantitative signal (current) that is directly proportional to changes (from basal levels) in NO or ONOO^− concentration. […] Basal NO or ONOO^− levels were measured by differential pulse voltammetry in separate experiments. […]

HUVECs [3] = assay: NO release from HUVECs incubated with treated, oxidized sdLDL (Example 12); assay type: cell-based, human; conditions: sdLDL treated at 10.0 μM
Description: All samples, with the exception of non-oxidized sdLDL controls, were subjected to copper-induced oxidation for 1 hour. Human umbilical vein endothelial cells (HUVECs) were incubated with the various sdLDL samples, stimulated with calcium, and monitored for nitric oxide (NO) and peroxynitrite (ONOO^−) release using nanosensor technology.

[4] = LOOH formation in membrane vesicles, EPA dose dependence (Example 18); assay type: biochemical; conditions: after four hours
Description: Iodometric analyses were used to measure LOOH formation in membrane vesicles reconstituted as binary mixtures of cholesterol and dilinoleoyl phosphatidylcholine.

IC50 (human sdLDL; 1 hr) [µM] | IC50 ([4]; read-out: half-maximum concentration of LOOH inhibition) [µM] | SMILES | effect on sdLDL oxidation compared to vehicle-treated controls (human sdLDL; 10 μM, 1 hour) | effect on cholesterol domain formation compared to control ([1]; any experimental time point) | effect on unfractionated LDL oxidation (human LDL; 10 μM) | inhibition of sdLDL oxidation (human sdLDL; 1.0 μM, 1 hr, vs vehicle) [%] | inhibition of TBARS formation / sdLDL oxidation (human sdLDL; 10 μM, 1 hr, vs vehicle, 10 µM) | effect on sdLDL oxidation compared to vehicle or DHA (human sdLDL; 10.0 μM, after 4 hours) | inhibition of relative cholesterol domain peak intensity ([1]; 96-hour time point, vs vehicle or vitamin E) | increase in NO release (HUVECs [2]) [%] | increase of NO release compared to non-oxidized sdLDL (HUVECs [3]) [%] | increase of NO release compared to oxidized LDL (HUVECs [3]) [%] | inhibition of TBARS formation compared to vehicle-treated control (human LDL; highest treatment concentration (10)) [%] | inhibition of LOOH formation ([4]; 1.0 μM, 10 μM copper sulfate) [%] | inhibition of LOOH formation ([4]; maximum concentration (range 1.0 to 10.0 μM)) [%]
– | – | Cc1c(C)c2c(c(C)c1O)CC[C@@](C)(CCC[C@H](C)CCC[C@H](C)CCCC(C)C)O2 [vitamin E, α-tocopherol, reference compound] | no significant effect on sdLDL oxidation | no significant effect on cholesterol domain formation | no significant effect on unfractionated LDL oxidation | – | – | – | – | – | – | – | – | – | –
~2 | ~6 | CC/C=C\C/C=C\C/C=C\C/C=C\C/C=C\CCCC(=O)O [EPA, cis-5,8,11,14,17-eicosapentaenoic acid] | – | – | – | 19±8 | 93±2% and 92±8% | significantly inhibited sdLDL oxidation | more than 99% | 45 | 23 | 53 | > 90 | 6 | 74

Source: patent publication US20190209506A1, “METHODS OF REDUCING OR PREVENTING OXIDATION OF LDL OR LIPID MEMBRANES IN A SUBJECT IN NEED THEREOF” (Amarin Pharmaceuticals Ireland Limited, priority 2018, published 2019)
